Consider 28 molecules from ChEMBL document CHEMBL4616590, “Therapeutic significance of β-glucuronidase activity and its inhibitors: A review” (Eur J Med Chem, 2020).

Molecules are shown by their SMILES. Bounds are passed on as bounds.

Sequence of Beta-glucuronidase (Escherichia coli (strain K12), UniProt P05804) (P05804 whole entry): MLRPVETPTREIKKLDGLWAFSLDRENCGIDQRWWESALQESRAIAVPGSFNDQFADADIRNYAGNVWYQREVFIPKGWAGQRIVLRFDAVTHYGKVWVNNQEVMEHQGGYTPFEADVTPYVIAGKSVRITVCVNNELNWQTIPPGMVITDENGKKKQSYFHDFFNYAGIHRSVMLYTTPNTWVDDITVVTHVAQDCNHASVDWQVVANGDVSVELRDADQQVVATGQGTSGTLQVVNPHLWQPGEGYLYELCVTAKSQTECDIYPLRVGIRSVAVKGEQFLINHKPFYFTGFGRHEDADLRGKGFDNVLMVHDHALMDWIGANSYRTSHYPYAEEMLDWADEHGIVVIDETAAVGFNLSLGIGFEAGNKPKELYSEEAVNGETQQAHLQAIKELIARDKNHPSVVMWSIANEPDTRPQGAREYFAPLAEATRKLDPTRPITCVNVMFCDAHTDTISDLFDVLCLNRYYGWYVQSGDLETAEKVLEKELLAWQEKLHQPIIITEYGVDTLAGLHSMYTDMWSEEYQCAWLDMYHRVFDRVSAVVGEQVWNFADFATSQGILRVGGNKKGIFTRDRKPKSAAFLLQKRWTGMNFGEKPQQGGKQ

The first test addresses Beta-glucuronidase (Escherichia coli (strain K12), UniProt P05804). Nature of the test: Inhibition of Escherichia coli beta-glucuronidase.
Details: not given
One may read the IC50 as the point on the concentration scale where inhibition reaches its midpoint. In turn, `CC(C)=CCc1c(-c2ccc(O)cc2O)oc2c([C@H]3C=C(C)C[C@@H](c4ccc(O)cc4O)[C@@H]3C(=O)c3ccc(O)cc3O)c(O)cc(O)c2c1=O` [KUMANON G] yielded an IC50 of 1.6 µM. In turn, `CC1(C)[C@@H](O[C@H]2O[C@H](C(=O)O)[C@@H](O)[C@H](O)[C@H]2O[C@@H]2O[C@H](C(=O)O)[C@@H](O)[C@H](O)[C@H]2O)CC[C@]2(C)[C@H]3C(=O)C=C4[C@@H]5C[C@@](C)(C(=O)O)CC[C@]5(C)CC[C@@]4(C)[C@]3(C)CC[C@@H]12` [GLYCYRRHIZIN] returned an IC50 of 12.1 µM.

For `CC(C)=CC[C@]12Oc3cc(O)c([C@H]4C=C(C)C[C@H](c5ccc(O)cc5O)[C@H]4C(=O)c4ccc(O)cc4O)c(O)c3C(=O)[C@@]1(O)Oc1cc(O)ccc12`, the 50% inhibitory concentration (IC50) was 0.4 µM. Still for that read-out and setting: as for `O=c1c(-c2ccc(O)cc2)coc2cc(O)ccc12` [DAIDZEIN], the figure is 1610 µM; as for `CO[C@@]1(CO)OCCC1=O`, 57 µM.

Tested on in another test: not listed separately
Nature of the test: Inhibition of Staphylococcus pasteuri beta-glucuronidase.
Details: not given
`CC(C)=CCc1c(-c2ccc(O)cc2O)oc2c([C@H]3C=C(C)C[C@@H](c4ccc(O)cc4O)[C@@H]3C(=O)c3ccc(O)cc3O)c(O)cc(O)c2c1=O` [KUMANON G] had an IC50 of 0.98 µM. The same measure, in the same setting: with `CC(C)=CC[C@]12Oc3cc(O)c([C@H]4C=C(C)C[C@H](c5ccc(O)cc5O)[C@H]4C(=O)c4ccc(O)cc4O)c(O)c3C(=O)[C@@]1(O)Oc1cc(O)ccc12` the figure was 0.33 µM.

Target in the next test: not listed separately
Briefly: Inhibition of bovine liver beta-glucuronidase using 4-nitrophenyl b-D-glucuronopyranoside as substrate after 30 mins. Set-up: species or system Bos taurus.
Details: not given
Consider `COC(=O)[C@]1(Cc2ccc(O)c(C=O)c2)OC(=O)C(O)=C1c1ccc(O)cc1`, for which the IC50 was found to be 6.2 µM. On the same count and under the same terms, as for `C[C@]12C=C/C(=N\O)C=C1CC[C@H]1[C@@H]3[C@@H](O)C[C@](C)(O)[C@@]3(C)CC[C@@H]12`, the figure is 49 µM; as for `O=C(O)[C@H]1NC(=O)[C@H](O)[C@@H](O)[C@@H]1O`, 31 µM. Regarding `O=C(O)[C@H]1NC(=O)[C@H](O)[C@@H](O)[C@H]1O`, 32 µM corresponded to half-maximal inhibition (IC50).

Target in the next test: not listed separately
Nature of the test: Inhibition of bovine liver beta-glucuronidase.
Details: not given
Set-up: species or system Bos taurus.
With `O=C(O)[C@H]1NC[C@H](O)[C@@H](O)[C@@H]1O`, the midpoint of inhibition, the IC50, lay at 70 µM. Molecule `O=C(O)[C@@H]1[C@@H](O)[C@H](O)[C@@]2(O)CC[C@@H]1N2` yielded a concentration for half-maximal inhibition (IC50) of 0.06 µM. The same measure, in the same setting: as for `Clc1ccc(-c2nnc(-c3ccc(-c4nc5ccccc5s4)cc3)o2)cc1`, the figure is 1.64 to 15.4 µM.

Consider `CC(=O)N[C@H]1NC[C@H](C(=O)O)[C@H](O)[C@@H]1O`, for which half-maximal inhibition (IC50) required 0.065 µM. The same measure, in the same setting: as for `CCCCCCCCC[C@@H]1NC[C@@H](O)[C@@H](O)[C@H](O)[C@H]1O`, the figure is 97 µM.

`Oc1cccc(-c2nnc(-c3ccc(-c4nc5ccccc5s4)cc3)o2)c1` yielded an IC50 of 32.4 µM. In turn, `O=C(O)[C@@H]1[C@@H](O)[C@H](O)[C@@H](O)c2nccn21` came in with an IC50 of 12 µM. Molecule `O[C@@H]1[C@@H](O)[C@H](O)[C@@]2(O)CC[C@@H]1N2` registered an IC50 of 2.3 µM. The molecule `Oc1ccccc1-c1nnc(-c2ccc(-c3nc4ccccc4s3)cc2)o1` showed an IC50 of 4.38 µM. The molecule `Fc1ccc(-c2nnc(-c3ccc(-c4nc5ccccc5s4)cc3)o2)cc1` yielded an IC50 of 8.56 µM. Molecule `O=C(O)[C@H]1CN[C@H](N2C(=O)c3ccccc3C2=O)[C@@H](O)[C@H]1O` displayed an IC50 of 0.068 µM. The same measure, in the same setting: as for `CC(=O)N[C@H]1NC[C@](O)(C(=O)O)[C@H](O)[C@@H]1O`, the figure is 0.062 µM; as for `c1ccc(-c2nnc(-c3ccc(-c4nc5ccccc5s4)cc3)o2)nc1`, 31.2 µM; as for `O=C(O)[C@H]1NC[C@H](O)[C@@H](O)[C@H]1O`, 86 µM.

Target in another test: not listed separately
Briefly: Inhibition of bacterial beta-glucuronidase using 4-nitrophenyl beta-D-glucuronopyranoside as substrate. Set-up: species or system Bacteria.
Details: not given
In turn, `O=C(O)[C@@H]1[C@@H](O)[C@H](O)[C@@]2(O)CC[C@@H]1N2` gave an IC50 of 60 µM. Still for that read-out and setting: as for `COc1ccc(-c2nnc(Nc3ccc(Cl)c(Cl)c3)s2)cc1`, the figure is 22.6 µM.

Tested on in another test: not listed separately
Briefly: Inhibition of Escherichia coli K-12 beta-glucuronidase using PNPG as substrate preincubated for 5 mins followed by substrate addition measured after 30 mins.
Details: not given
On to `O=c1c(O)c(-c2ccc(O)c(O)c2)oc2cc(O)cc(O)c12` [QUERCETIN], for which the IC50 is 5.76 to 29.6 µM. Take `O=c1cc(-c2ccc(O)cc2)oc2cc(O)c(O)c(O)c12` [SCUTELLAREIN]: the IC50 amounted to 5.76 µM. Still for that read-out and setting: as for `O=C(O)[C@@H](O)[C@H]1OC(=O)[C@H](O)[C@H]1O` [D-SACCHARIC ACID 1,4-LACTONE], the figure is 36.1 µM.

For a further test, the target named is T1, Beta-glucuronidase (Homo sapiens) (UniProt P08236).
T1 sequence (whole entry): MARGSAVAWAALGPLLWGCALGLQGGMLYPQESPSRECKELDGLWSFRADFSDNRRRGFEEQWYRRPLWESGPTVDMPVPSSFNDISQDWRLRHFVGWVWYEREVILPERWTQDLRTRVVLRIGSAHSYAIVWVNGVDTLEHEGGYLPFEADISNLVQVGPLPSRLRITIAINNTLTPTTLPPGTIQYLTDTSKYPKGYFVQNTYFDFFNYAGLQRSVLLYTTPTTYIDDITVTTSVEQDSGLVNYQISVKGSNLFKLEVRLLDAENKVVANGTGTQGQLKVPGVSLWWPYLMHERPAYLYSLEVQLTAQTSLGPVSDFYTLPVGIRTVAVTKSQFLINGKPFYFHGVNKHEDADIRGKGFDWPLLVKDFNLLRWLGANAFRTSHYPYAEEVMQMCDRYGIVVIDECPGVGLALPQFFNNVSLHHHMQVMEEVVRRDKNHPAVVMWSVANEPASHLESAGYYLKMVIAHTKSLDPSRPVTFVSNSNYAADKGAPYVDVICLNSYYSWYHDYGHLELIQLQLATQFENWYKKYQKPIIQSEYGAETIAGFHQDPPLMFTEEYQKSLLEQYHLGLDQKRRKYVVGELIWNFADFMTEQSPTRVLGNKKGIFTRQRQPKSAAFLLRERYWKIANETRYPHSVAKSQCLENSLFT
Nature of the test: Potency index, ratio of Silymarin IC50 to test compound IC50 for beta-glucuronidase (unknown origin).
Details: not given
Take `O=c1c(O)c(-c2ccc(O)cc2)oc2cc(O)cc(O)c12`: the Ratio IC50 amounted to 76.

For a further test, the target named is T1, Beta-glucuronidase (Homo sapiens). Nature of the test: Inhibition of whole human gut bacterial beta-glucuronidase relative to control. The following applies: concentration not given here.
Usually inhibition stands for the change of the read-out against control, counted positive when it falls. A higher inhibition goes with a response far below the control. `CC(C)=CCc1c(-c2ccc(O)cc2O)oc2c([C@H]3C=C(C)C[C@@H](c4ccc(O)cc4O)[C@@H]3C(=O)c3ccc(O)cc3O)c(O)cc(O)c2c1=O` [KUMANON G] returned an inhibition above 70%. In turn, `CC(C)=CC[C@]12Oc3cc(O)c([C@H]4C=C(C)C[C@H](c5ccc(O)cc5O)[C@H]4C(=O)c4ccc(O)cc4O)c(O)c3C(=O)[C@@]1(O)Oc1cc(O)ccc12` returned an inhibition above 70%.

The target in a further test is T2, Beta-glucuronidase (Rattus norvegicus, UniProt P06760).
T2 sequence (P06760 whole entry): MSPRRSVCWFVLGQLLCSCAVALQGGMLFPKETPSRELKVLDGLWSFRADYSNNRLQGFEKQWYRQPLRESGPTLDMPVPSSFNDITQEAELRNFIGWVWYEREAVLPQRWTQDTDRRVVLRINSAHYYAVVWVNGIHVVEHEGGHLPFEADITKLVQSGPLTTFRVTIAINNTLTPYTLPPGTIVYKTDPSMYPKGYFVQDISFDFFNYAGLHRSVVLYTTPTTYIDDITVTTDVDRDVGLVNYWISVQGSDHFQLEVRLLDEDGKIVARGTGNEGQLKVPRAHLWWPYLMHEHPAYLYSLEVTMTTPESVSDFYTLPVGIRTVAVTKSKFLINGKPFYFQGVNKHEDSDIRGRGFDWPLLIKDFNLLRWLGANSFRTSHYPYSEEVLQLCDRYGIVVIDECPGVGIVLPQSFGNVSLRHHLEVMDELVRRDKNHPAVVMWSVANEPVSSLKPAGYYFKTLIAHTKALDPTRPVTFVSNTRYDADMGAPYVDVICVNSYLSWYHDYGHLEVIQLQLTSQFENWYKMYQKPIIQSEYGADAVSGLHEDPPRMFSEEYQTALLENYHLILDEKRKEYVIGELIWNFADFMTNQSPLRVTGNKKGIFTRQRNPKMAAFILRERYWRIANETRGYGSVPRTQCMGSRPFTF
Briefly: Inhibition of rat liver beta-glucuronidase.
Details: not given
`CC1(C)[C@@H](O[C@H]2O[C@H](C(=O)O)[C@@H](O)[C@H](O)[C@H]2O[C@@H]2O[C@H](C(=O)O)[C@@H](O)[C@H](O)[C@H]2O)CC[C@]2(C)[C@H]3C(=O)C=C4[C@@H]5C[C@@](C)(C(=O)O)CC[C@]5(C)CC[C@@]4(C)[C@]3(C)CC[C@@H]12` [GLYCYRRHIZIN] yielded a 50% inhibitory concentration (IC50) of 97.2 µM.

For `O=c1c(-c2ccc(O)cc2)coc2cc(O)ccc12` [DAIDZEIN], the IC50 was 1970 µM.

Target in the next test: not listed separately
Nature of the test: Inhibition of bovine liver beta-glucuronidase using 4-nitrophenyl beta-D-glucuronopyranoside as substrate preincubated for 30 mins followed by substrate addition measured after 10 to 20 mins by e Lineweaver-Burk plot analysis. Set-up: species or system Bos taurus.
Details: not given
Broadly, the Ki is a measure of affinity in units of concentration, obtained from inhibition or displacement. The molecule `O=C(O)[C@@H]1[C@@H](O)[C@H](O)[C@@H](O)c2nccn21` yielded a Ki of 0.012 µM.
